Laboratory results taken from ChEMBL document CHEMBL1151930, “Physicochemical determinants of human renal clearance” (J Med Chem, 2009).

Assay: clinical
Conditions: human, in vivo

| Compound | CL renal |
| --- | --- |
| CC(C)(C)NC(=O)[C@@H]1CN(Cc2cccnc2)CCN1C[C@@H](O)C[C@@H](Cc1ccccc1)C(=O)N[C@H]1c2ccccc2C[C@H]1O.O | 1.53 mL/min/kg |
| CN[C@H](CC(C)C)C(=O)N[C@H]1C(=O)N[C@@H](CC(N)=O)C(=O)N[C@H]2C(=O)N[C@H]3C(=O)N[C@H](C(=O)N[C@H](C(=O)O)c4cc(O)cc(O)c4-c4cc3ccc4O)[C@H](O)c3ccc(c(Cl)c3)Oc3cc2cc(c3O[C@@H]2O[C@H](CO)[C@@H](O)[C@H](O)[C@H]2O[C@H]2C[C@](C)(N)[C@H](O)[C@H](C)O2)Oc2ccc(cc2Cl)[C@H]1O [VANCOMYCIN] | 1.03 mL/min/kg |
| S=P(N1CC1)(N1CC1)N1CC1 [THIOTEPA] | 0.03 mL/min/kg |
| Cc1nc2n(c(=O)c1CCN1CCC(c3noc4cc(F)ccc34)CC1)CCCC2 [RISPERIDONE] | 0.18 mL/min/kg |
| O=C(c1ccc(F)cc1)C1CCN(CCn2c(=O)[nH]c3ccccc3c2=O)CC1 [KETANSERIN] | 0.05 mL/min/kg |
| Cc1cn([C@H]2C[C@H](N=[N+]=[N-])[C@@H](CO)O2)c(=O)[nH]c1=O [ZIDOVUDINE] | 5.67 mL/min/kg |
| O=c1[nH]cc(F)c(=O)[nH]1 [FLUOROURACIL] | 1.1 mL/min/kg |
| CC(CN1c2ccccc2Sc2ccccc21)N(C)C (stereo unspecified) [PROMETHAZINE] | 0.14 mL/min/kg |
| CC1(C)C[C@@H]1C(=O)N/C(=C\CCCCSC[C@H](N)C(=O)O)C(=O)O [CILASTATIN] | 0.41 mL/min/kg |
| CC[C@H](C)C(=O)O[C@H]1C[C@@H](C)C=C2C=C[C@H](C)[C@H](CC[C@@H]3C[C@@H](O)CC(=O)O3)[C@H]21 [LOVASTATIN] | 0.72 mL/min/kg |
| COc1ccc2c3c1O[C@H]1C(=O)CC[C@@]4(O)[C@@H](C2)N(C)CC[C@]314 [OXYCODONE] | 1.1 mL/min/kg |
| CNC(=C[N+](=O)[O-])NCCSCc1csc(CN(C)C)n1 [NIZATIDINE] | 7.35 mL/min/kg |
| C[C@@H](CN1CC(=O)NC(=O)C1)N1CC(=O)NC(=O)C1 [DEXRAZOXANE] | 1.4 mL/min/kg |
| C[C@@H]1CN(c2c(F)c(N)c3c(=O)c(C(=O)O)cn(C4CC4)c3c2F)C[C@H](C)N1 [SPARFLOXACIN] | 0.4 mL/min/kg |
| CC(C)(C)NC[C@H](O)COc1nsnc1N1CCOCC1 [TIMOLOL] | 1.4 mL/min/kg |
| COC(=O)Nc1nc2ccc(C(=O)c3ccccc3)cc2[nH]1 [MEBENDAZOLE] | 0.17 mL/min/kg |
| CC(C)=CCN1CC[C@]2(C)c3cc(O)ccc3C[C@H]1[C@H]2C [(+)-PENTAZOCINE] | 2.99 mL/min/kg |
| Cc1onc(-c2ccccc2)c1C(=O)N[C@@H]1C(=O)N2[C@@H]1SC(C)(C)[C@@H]2C(=O)O [OXACILLIN] | 2.6 mL/min/kg |
| COc1ccc2[nH]c([S+]([O-])Cc3ncc(C)c(OC)c3C)nc2c1 (stereo unspecified) [OMEPRAZOLE] | 0.08 mL/min/kg |
| C=CCc1ccccc1OCC(O)CNC(C)C (stereo unspecified) [ALPRENOLOL] | 0.6 mL/min/kg |
| CN(C)CCc1c[nH]c2ccc(CS(=O)(=O)N3CCCC3)cc12 [ALMOTRIPTAN] | 5.79 mL/min/kg |

| Compound | CL renal |
| --- | --- |
| NC1CCN(c2c(F)cc3c(=O)c(C(=O)O)cn(C4CC4)c3c2Cl)C1 (stereo unspecified) [CLINAFLOXACIN] | 3.2 mL/min/kg |
| N[C@@H](Cc1ccc(O)c(O)c1)C(=O)O [LEVODOPA] | 0.23 mL/min/kg |
| CN(C)c1cc(NC(=O)CNC(C)(C)C)c(O)c2c1C[C@H]1C[C@H]3[C@H](N(C)C)C(O)=C(C(N)=O)C(=O)[C@@]3(O)C(O)=C1C2=O [TIGECYCLINE] | 0.57 mL/min/kg |
| CC1=C(C(=O)O)N2C(=O)[C@@H](NC(=O)[C@H](N)c3ccc(O)cc3)[C@H]2SC1 [CEFADROXIL] | 2.33 mL/min/kg |
| COCCc1ccc(OCC(O)CNC(C)C)cc1 (stereo unspecified) [METOPROLOL] | 0.65 mL/min/kg |
| CCOc1ccccc1OC(c1ccccc1)C1CNCCO1 (stereo unspecified) [REBOXETINE] | 0.04 mL/min/kg |
| C[C@H]1O[C@@H](n2cc(F)c(=O)[nH]c2=O)[C@H](O)[C@@H]1O [DOXIFLURIDINE] | 4.3 mL/min/kg |
| CC(=O)[C@]1(O)Cc2c(O)c3c(c(O)c2[C@@H](O[C@H]2C[C@H](N)[C@H](O)[C@H](C)O2)C1)C(=O)c1ccccc1C3=O [IDARUBICIN] | 1.8 mL/min/kg |
| COc1ccccc1OCCNCC(O)COc1cccc2[nH]c3ccccc3c12 (stereo unspecified) [CARVEDILOL] | 0.1 mL/min/kg |
| CO[C@@]1(NC(=O)C(C(=O)O)c2ccc(O)cc2)C(=O)N2C(C(=O)O)=C(CSc3nnnn3C)CO[C@@H]21 (stereo partly specified) [MOXALACTAM] | 0.63 mL/min/kg |
| CC(C)(C)NCC(O)c1cc(O)cc(O)c1 (stereo unspecified) [TERBUTALINE] | 2.2 mL/min/kg |
| O=c1[nH]c2ccccc2n1CCCN1CCC(n2c(=O)[nH]c3cc(Cl)ccc32)CC1 [DOMPERIDONE] | 0.04 mL/min/kg |
| CN/C(=N/CCSCc1nc[nH]c1C)NC#N [CIMETIDINE] | 7.9 mL/min/kg |
| Sc1ncnc2nc[nH]c12 [MERCAPTOPURINE ANHYDROUS] | 0.68 mL/min/kg |
| CCN1CCC[C@H]1CNC(=O)c1c(OC)ccc(Br)c1OC [REMOXIPRIDE] | 0.44 mL/min/kg |
| Cc1[nH]c(=O)c(C#N)cc1-c1ccncc1 [MILRINONE] | 5 mL/min/kg |
| CO/N=C(\C(=O)N[C@@H]1C(=O)N2C(C(=O)O)=C(COC(N)=O)CS[C@H]12)c1ccco1 [CEFUROXIME] | 2.11 mL/min/kg |
| NS(=O)(=O)c1cc(C(=O)O)cc(N2CCCC2)c1Oc1ccccc1 [PIRETANIDE] | 1.05 mL/min/kg |
| CC(=O)O[C@H]1C(=O)[C@@]2(C)[C@H]([C@H](OC(=O)c3ccccc3)[C@]3(O)C[C@H](OC(=O)[C@H](O)[C@@H](NC(=O)c4ccccc4)c4ccccc4)C(C)=C1C3(C)C)[C@]1(OC(C)=O)CO[C@@H]1C[C@@H]2O [PACLITAXEL] | 0.64 mL/min/kg |
| CCCCCNC(=N)N/N=C/c1c[nH]c2ccc(OC)cc12 [TEGASEROD] | 0.36 mL/min/kg |
| C[C@H]1COc2c(N3CCN(C)CC3)c(F)cc3c(=O)c(C(=O)O)cn1c23.C[C@H]1COc2c(N3CCN(C)CC3)c(F)cc3c(=O)c(C(=O)O)cn1c23.O [LEVOFLOXACIN] | 1.41 mL/min/kg |

| Compound | CL renal |
| --- | --- |
| CC1(C)S[C@@H]2[C@H](NC(=O)C(c3ccccc3)S(=O)(=O)O)C(=O)N2[C@H]1C(=O)O (stereo partly specified) [SULBENICILLIN] | 1.3 mL/min/kg |
| COc1cc([C@@H]2c3cc4c(cc3[C@@H](O[C@@H]3O[C@@H]5CO[C@@H](c6cccs6)O[C@H]5[C@H](O)[C@H]3O)[C@H]3COC(=O)[C@H]23)OCO4)cc(OC)c1O [TENIPOSIDE] | 0.02 mL/min/kg |
| N[C@@H]1CN(c2c(F)cc3c(=O)c(C(=O)O)cn([C@@H]4C[C@@H]4F)c3c2Cl)CC12CC2 [SITAFLOXACIN ANHYDROUS] | 2.8 mL/min/kg |
| CCCCN1CCCCC1C(=O)Nc1c(C)cccc1C (stereo unspecified) [BUPIVACAINE] | 0.09 mL/min/kg |
| CNS(=O)(=O)CCc1ccc2[nH]cc(C3CCN(C)CC3)c2c1 | 3.1 mL/min/kg |
| O=C(c1ccccc1)c1ccc2n1CCC2C(=O)O (stereo unspecified) [KETOROLAC] | 0.2 mL/min/kg |
| CC1(C)S[C@@H]2[C@H](NC(=O)[C@H](NC(=O)N3CCNC3=O)c3ccccc3)C(=O)N2[C@H]1C(=O)O [AZLOCILLIN] | 1.67 mL/min/kg |
| CC1(C)S[C@@H]2[C@H](NC(=O)[C@H](N)c3ccc(O)cc3)C(=O)N2[C@H]1C(=O)O [AMOXICILLIN] | 1.89 mL/min/kg |
| O=C(N[C@H](CO)[C@H](O)c1ccc([N+](=O)[O-])cc1)C(Cl)Cl [CHLORAMPHENICOL] | 0.24 mL/min/kg |
| COc1ccc2cc1Oc1cc3c(cc1OC)CC[N+](C)(C)[C@H]3Cc1ccc(cc1)Oc1c(OC)c(OC)cc3c1[C@@H](C2)[N+](C)(C)CC3.[I-].[I-] [METOCURINE IODIDE] | 0.52 mL/min/kg |
| Cc1ccc(-c2nc3ccc(C)cn3c2CC(=O)N(C)C)cc1 [ZOLPIDEM] | 0.04 mL/min/kg |
| C[C@@H](O)[C@H]1C(=O)N2C(C(=O)[O-])=C(SC3Cn4cnc[n+]4C3)[C@H](C)[C@H]12 (stereo partly specified) [BIAPENEM] | 1.23 mL/min/kg |
| CC1(C)S[C@@H]2[C@H](NC(=O)[C@H](N)c3ccccc3)C(=O)N2[C@H]1C(=O)O [AMPICILLIN] | 1.2 mL/min/kg |
| CN1CCC[C@H]1c1cccnc1 [NICOTINE] | 3 mL/min/kg |
| CC(C)(C)NCC(O)COc1ccc(NC(=O)NC2CCCCC2)cc1 (stereo unspecified) [TALINOLOL] | 2.6 mL/min/kg |
| COc1cc(OC)c(C(=O)CCCN2CCCC2)c(OC)c1 [BUFLOMEDIL] | 1.3 mL/min/kg |
| CO/N=C(\C(=O)N[C@@H]1C(=O)N2C(C(=O)O)=C(COC(C)=O)CS[C@H]12)c1csc(N)n1 [CEFOTAXIME] | 1.37 mL/min/kg |
| NC(=O)NO [HYDROXYUREA] | 0.54 mL/min/kg |
| CN(C)Cc1nnc2n1-c1ccc(Cl)cc1C(c1ccccc1)=NC2 [ADINAZOLAM] | 2.6 mL/min/kg |
| CC1CCCC(C)N1CCCC(O)(c1ccccc1)c1ccccn1 (stereo unspecified) [PIRMENOL] | 0.72 mL/min/kg |
| NS(=O)(=O)c1cc(C2(O)NC(=O)c3ccccc32)ccc1Cl (stereo unspecified) [CHLORTHALIDONE] | 0.98 mL/min/kg |

| Compound | CL renal |
| --- | --- |
| NC(=O)c1ncn([C@@H]2O[C@H](CO)[C@@H](O)[C@H]2O)n1 [RIBAVIRIN] | 1.7 mL/min/kg |
| CCN(CC)CCCC(C)Nc1ccnc2cc(Cl)ccc12 (stereo unspecified) [CHLOROQUINE] | 2.3 mL/min/kg |
| O=C1CN=C(c2ccccc2Cl)c2cc([N+](=O)[O-])ccc2N1 [CLONAZEPAM] | 0.01 mL/min/kg |
| Nc1nc(N)c2nc(-c3ccccc3)c(N)nc2n1 | 2.77 mL/min/kg |
| C[C@]12C=CC(=O)C=C1CC[C@@H]1[C@@H]2C(=O)C[C@@]2(C)[C@H]1CC[C@]2(O)C(=O)CO [PREDNISONE] | 0.05 mL/min/kg |
| O=C(O)[C@H]1/C(=C/CO)O[C@@H]2CC(=O)N21 [CLAVULANIC ACID] | 1.33 mL/min/kg |
| N=C(N)c1ccc(CNC(=O)[C@@H]2CCN2C(=O)[C@H](NCC(=O)O)C2CCCCC2)cc1 | 1.6 mL/min/kg |
| O=c1[nH]cnc2c1ncn2[C@H]1CC[C@@H](CO)O1 [DIDANOSINE] | 6.8 mL/min/kg |
| Cc1ccsc1C(=CCCN1CCC[C@@H](C(=O)O)C1)c1sccc1C [TIAGABINE] | 0.03 mL/min/kg |
| Cc1ncsc1CCCl [CLOMETHIAZOLE] | 0.03 mL/min/kg |
| C[C@H]1C[C@@H]2[C@H]([C@@H](O)C[C@@]3(C)[C@H]2CC[C@]3(O)C(=O)CO)[C@@]2(C)C=CC(=O)C=C12 [METHYLPREDNISOLONE] | 0.3 mL/min/kg |
| CN(C)CCCC1(c2ccc(F)cc2)OCc2cc(C#N)ccc21 (stereo unspecified) [CITALOPRAM] | 0.45 mL/min/kg |
| CCC(C)(C)NCC(O)COc1ccccc1C(=O)CCc1ccccc1 (stereo unspecified) [DIPRAFENONE] | 0.04 mL/min/kg |
| CC[C@H](C)C(=O)O[C@H]1C[C@H](O)C=C2C=C[C@H](C)[C@H](CC[C@@H](O)C[C@@H](O)CC(=O)O)[C@H]21 [PRAVASTATIN] | 6.3 mL/min/kg |
| CCC(CC)O[C@@H]1C=C(C(=O)O)C[C@H](N)[C@H]1NC(C)=O [OSELTAMIVIR CARBOXYLATE] | 4.46 mL/min/kg |
| Cc1cccc(C)c1NC(=O)C(C)N (stereo unspecified) [TOCAINIDE] | 0.8 mL/min/kg |
| CC(=O)Oc1ccccc1C(=O)O [ASPIRIN] | 0.24 mL/min/kg |
| CC(=O)Nc1nnc(S(N)(=O)=O)s1 [ACETAZOLAMIDE] | 0.64 mL/min/kg |
